Data from PubChem BioAssay AID1963964 (Molecular Pharmacology Branch, DTP, NCI, 2024).

Tested on: 997726-040-R-J2-PDC tumor spheroids, viability
Assay: Anticancer human tumor 997726-040-R-J2-PDC patient-derived squamous cell lung carcinoma cell line growth inhibition [PI3K]
Conditions: spheroids with HUVEC and MSC; for IC50: curve of first compound; for viability, T/C: stronger effect = lower value
Outline: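 Multi-cell spheroids combine tumor cells with HUVEC and human MSCs, treated with targeted agents alone or with inavolisib, alpelisib, duvelisib or copanlisib. Concentrations fall in half-log steps from at or near clinical Cmax, or from 10 microM where Cmax is unknown; viability read-out.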

[1] = second compound 0.00316 µM, first compound 0.0316 µM
[2] = second compound 0.00316 µM, first compound 0.1 µM
[3] = second compound 0.00316 µM, first compound 0.316 µM
[4] = second compound 0.00316 µM, first compound 1 µM
[5] = second compound 0.00316 µM, first compound 3.16 µM
[6] = second compound 0.00316 µM, first compound 10 µM
[7] = second compound 0.01 µM, first compound 0.0316 µM
[8] = second compound 0.01 µM, first compound 0.1 µM
[9] = second compound 0.01 µM, first compound 0.316 µM
[10] = second compound 0.01 µM, first compound 1 µM
[11] = second compound 0.01 µM, first compound 3.16 µM
[12] = second compound 0.01 µM, first compound 10 µM
[13] = second compound 0.0316 µM, first compound 0.0316 µM
[14] = second compound 0.0316 µM, first compound 0.1 µM
[15] = second compound 0.0316 µM, first compound 0.316 µM
[16] = second compound 0.0316 µM, first compound 1 µM
[17] = second compound 0.0316 µM, first compound 3.16 µM
[18] = second compound 0.0316 µM, first compound 10 µM
[19] = second compound 0.1 µM, first compound 0.0316 µM
[20] = second compound 0.1 µM, first compound 0.1 µM
[21] = second compound 0.1 µM, first compound 0.316 µM
[22] = second compound 0.1 µM, first compound 1 µM
[23] = second compound 0.1 µM, first compound 3.16 µM
[24] = second compound 0.1 µM, first compound 10 µM
[25] = second compound 0.316 µM, first compound 0.0316 µM
[26] = second compound 0.316 µM, first compound 0.1 µM
[27] = second compound 0.316 µM, first compound 0.316 µM
[28] = second compound 0.316 µM, first compound 1 µM
[29] = second compound 0.316 µM, first compound 3.16 µM
[30] = second compound 0.316 µM, first compound 10 µM
[31] = second compound 1 µM, first compound 0.0316 µM
[32] = second compound 1 µM, first compound 0.1 µM
[33] = second compound 1 µM, first compound 0.316 µM
[34] = second compound 1 µM, first compound 1 µM
[35] = second compound 1 µM, first compound 3.16 µM
[36] = second compound 1 µM, first compound 10 µM
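Note: spheroids exposed to compounds for seven days before readout.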

**Q.** For C#Cc1c(F)ccc2cc(O)cc(-c3ncc4c(N5CC6CCC(C5)N6)nc(OCC56CCCN5CC(F)C6)nc4c3F)c12 (centres undefined) + COc1c(OCCCN2CCOCC2)ccc2c3n(c(=NC(=O)c4cnc(N)nc4)nc12)CCN3, which IC50 (second compound 0.00316 µM) is on record?
**A.** Its IC50 is greater than 10000 nM.

**Q.** What about the IC50 (second compound 0.01 µM) of the same compound?
**A.** The IC50 was 5110 nM.

**Q.** What about the IC50 (second compound 0.0316 µM) of the same compound?
**A.** The IC50 was less than 31.6 nM.

**Q.** And the IC50 (second compound 0.1 µM)?
**A.** The IC50 was less than 31.6 nM.

**Q.** And the IC50 (second compound 0.316 µM)?
**A.** The IC50 was less than 31.6 nM.

**Q.** What about the IC50 (second compound 1 µM) of the same compound?
**A.** The IC50 was less than 31.6 nM.

**Q.** And the viability, T/C [1]?
**A.** The viability, T/C was 73.6%.

**Q.** What about the viability, T/C [2] of the same compound?
**A.** The viability, T/C was 74.5%.

**Q.** And the viability, T/C [3]?
**A.** Its viability, T/C is 69.3%.

**Q.** What about the viability, T/C [4] of the same compound?
**A.** Its viability, T/C is 76%.

**Q.** And the viability, T/C [5]?
**A.** Its viability, T/C is 72%.

**Q.** What about the viability, T/C [6] of the same compound?
**A.** The viability, T/C was 58.5%.

**Q.** What about the viability, T/C [7] of the same compound?
**A.** The viability, T/C was 63.7%.

**Q.** What about the viability, T/C [8] of the same compound?
**A.** Its viability, T/C is 57.6%.

**Q.** And the viability, T/C [9]?
**A.** The viability, T/C was 55.5%.

**Q.** And the viability, T/C [10]?
**A.** The viability, T/C was 57.2%.

**Q.** What about the viability, T/C [11] of the same compound?
**A.** Its viability, T/C is 51.3%.

**Q.** And the viability, T/C [12]?
**A.** Its viability, T/C is 47.1%.

**Q.** And the viability, T/C [13]?
**A.** The viability, T/C was 36.1%.

**Q.** What about the viability, T/C [14] of the same compound?
**A.** Its viability, T/C is 35%.

**Q.** And the viability, T/C [15]?
**A.** The viability, T/C was 30%.

**Q.** What about the viability, T/C [16] of the same compound?
**A.** The viability, T/C was 32.6%.

**Q.** And the viability, T/C [17]?
**A.** The viability, T/C was 28.7%.

**Q.** What about the viability, T/C [18] of the same compound?
**A.** Its viability, T/C is 27.7%.

**Q.** What about the viability, T/C [19] of the same compound?
**A.** Its viability, T/C is 23%.

**Q.** What about the viability, T/C [20] of the same compound?
**A.** The viability, T/C was 21.7%.

**Q.** And the viability, T/C [21]?
**A.** Its viability, T/C is 20.9%.

**Q.** And the viability, T/C [22]?
**A.** Its viability, T/C is 22.2%.

**Q.** What about the viability, T/C [23] of the same compound?
**A.** Its viability, T/C is 20.1%.

**Q.** What about the viability, T/C [24] of the same compound?
**A.** The viability, T/C was 17.6%.

**Q.** What about the viability, T/C [25] of the same compound?
**A.** Its viability, T/C is 4.68%.

**Q.** And the viability, T/C [26]?
**A.** Its viability, T/C is 5.65%.

**Q.** And the viability, T/C [27]?
**A.** The viability, T/C was 4.53%.

**Q.** What about the viability, T/C [28] of the same compound?
**A.** Its viability, T/C is 4.98%.

**Q.** And the viability, T/C [29]?
**A.** The viability, T/C was 4.96%.

**Q.** What about the viability, T/C [30] of the same compound?
**A.** The viability, T/C was 3.97%.

**Q.** And the viability, T/C [31]?
**A.** Its viability, T/C is 1.7%.

**Q.** And the viability, T/C [32]?
**A.** The viability, T/C was 1.08%.

**Q.** What about the viability, T/C [33] of the same compound?
**A.** Its viability, T/C is 1.16%.

**Q.** What about the viability, T/C [34] of the same compound?
**A.** Its viability, T/C is 0.96%.

**Q.** What about the viability, T/C [35] of the same compound?
**A.** Its viability, T/C is 0.92%.

**Q.** And the viability, T/C [36]?
**A.** Its viability, T/C is 0.86%.

**Q.** Which results are given for C=CC(=O)N1CCN(c2nc(=O)n(-c3c(C)ccnc3C(C)C)c3nc(-c4c(O)cccc4F)c(F)cc23)C(C)C1 (centres undefined) + COc1c(OCCCN2CCOCC2)ccc2c3n(c(=NC(=O)c4cnc(N)nc4)nc12)CCN3?
**A.** IC50 (second compound 0.00316 µM): > 10000 nM; IC50 (second compound 0.01 µM): > 10000 nM; IC50 (second compound 0.0316 µM): < 31.6 nM; IC50 (second compound 0.1 µM): < 31.6 nM; IC50 (second compound 0.316 µM): < 31.6 nM; IC50 (second compound 1 µM): < 31.6 nM; viability, T/C [1]: 71.2%; viability, T/C [2]: 72.5%; viability, T/C [3]: 85.4%; viability, T/C [4]: 77.6%; viability, T/C [5]: 92.2%; viability, T/C [6]: 96.4%; viability, T/C [7]: 53%; viability, T/C [8]: 57.5%; viability, T/C [9]: 51.2%; viability, T/C [10]: 62.9%; viability, T/C [11]: 63.1%; viability, T/C [12]: 57.1%; viability, T/C [13]: 33.9%; viability, T/C [14]: 36%; viability, T/C [15]: 34.4%; viability, T/C [16]: 40.5%; viability, T/C [17]: 43.2%; viability, T/C [18]: 34.8%; viability, T/C [19]: 28%; viability, T/C [20]: 24.4%; viability, T/C [21]: 25.1%; viability, T/C [22]: 23.3%; viability, T/C [23]: 22.9%; viability, T/C [24]: 21.8%; viability, T/C [25]: 6.57%; viability, T/C [26]: 6.07%; viability, T/C [27]: 5.29%; viability, T/C [28]: 5.93%; viability, T/C [29]: 4.93%; viability, T/C [30]: 4.59%; viability, T/C [31]: 2.71%; viability, T/C [32]: 1.42%; viability, T/C [33]: 1.53%; viability, T/C [34]: 1.33%; viability, T/C [35]: 1.27%; viability, T/C [36]: 1.57%
